Like-named read-outs stand apart in the source and are kept apart here.
What was measured:
Experiment in all cases: NCI one-dose SRB anti-proliferative screen
Type in all cases: cell-based
HL-60(TB) = settings: Homo sapiens, read-out: Cell growth inhibition %
Protocol: (§1) The twenty-four synthesized compounds were submitted to the National Cancer Institute (NCI), USA. Eighteen hybrids 7a-h, 7k-r, 7u, and 7v were selected by NCI for one-dose assessment of their anti-proliferative activities at 10 µM dose by Sulforhodamine B colorimetric assay. The assessment was performed in 60 cell lines derived from nine tumor subpanels, comprising lung, leukemia, melanoma, colon, renal, CNS, prostate, breast, and ovarian cancer cell lines.
(§2) The methodology of the NCI anti-proliferative screening has been described in details elsewhere (http://www.dtp.nci.nih.gov).

COLO 205 = settings: Homo sapiens, read-out: Cell growth inhibition %
Protocol: as §1, §2

NCI/ADR-RES = settings: Homo sapiens, read-out: Cell growth inhibition %
Protocol: as §1, §2

HOP-92 = settings: Homo sapiens, read-out: Cell growth inhibition %
Protocol: as §1, §2

MDA-MB-468 = settings: Homo sapiens, read-out: Cell growth inhibition %
Protocol: as §1, §2

SNB-75 = settings: Homo sapiens, read-out: Cell growth inhibition %
Protocol: as §1, §2

OVCAR-4 = settings: Homo sapiens, read-out: Cell growth inhibition %
Protocol: as §1, §2

UACC-62 = settings: Homo sapiens, read-out: Cell growth inhibition %
Protocol: as §1, §2

A549/ATCC = settings: Homo sapiens, read-out: Cell growth inhibition %
Protocol: as §1, §2

SF-539 = settings: Homo sapiens, read-out: Cell growth inhibition %
Protocol: as §1, §2

MALME-3M = settings: Homo sapiens, read-out: Cell growth inhibition %
Protocol: as §1, §2

M14 = settings: Homo sapiens, read-out: Cell growth inhibition %
Protocol: as §1, §2

SN12C = settings: Homo sapiens, read-out: Cell growth inhibition %
Protocol: as §1, §2

DU-145 = settings: Homo sapiens, read-out: Cell growth inhibition %
Protocol: as §1, §2

PC-3 = settings: Homo sapiens, read-out: Cell growth inhibition %
Protocol: as §1, §2

KM12 = settings: Homo sapiens, read-out: Cell growth inhibition %
Protocol: as §1, §2

NCI-H460 = settings: Homo sapiens, read-out: Cell growth inhibition %
Protocol: as §1, §2

HS 578T = settings: Homo sapiens, read-out: Cell growth inhibition %
Protocol: as §1, §2

CCRF-CEM = settings: Homo sapiens, read-out: Cell growth inhibition %
Protocol: as §1, §2

ACHN = settings: Homo sapiens, read-out: Cell growth inhibition %
Protocol: as §1, §2

UACC-257 = settings: Homo sapiens, read-out: Cell growth inhibition %
Protocol: as §1, §2

HT29 = settings: Homo sapiens, HT-29, read-out: Cell growth inhibition %
Protocol: as §1, §2

RPMI-8226 = settings: Homo sapiens, read-out: Cell growth inhibition %
Protocol: as §1, §2

SK-MEL-28 = settings: Homo sapiens, read-out: Cell growth inhibition %
Protocol: as §1, §2

SK-MEL-2 = settings: Homo sapiens, read-out: Cell growth inhibition %
Protocol: as §1, §2

SW-620 = settings: Homo sapiens, read-out: Cell growth inhibition %
Protocol: as §1, §2

OVCAR-3 = settings: Homo sapiens, read-out: Cell growth inhibition %
Protocol: as §1, §2

SF-268 = settings: Homo sapiens, read-out: Cell growth inhibition %
Protocol: as §1, §2

LOX IMVI = settings: Homo sapiens, read-out: Cell growth inhibition %
Protocol: as §1, §2

HCT-15 = settings: Homo sapiens, read-out: Cell growth inhibition %
Protocol: as §1, §2

OVCAR-5 = settings: Homo sapiens, read-out: Cell growth inhibition %
Protocol: as §1, §2

COc1cc(-c2nc3cc(-c4nnc(SCC(=O)Nc5ccc(C(=O)/C=C/c6ccc(Cl)cc6)cc5)o4)ccc3[nH]2)cc(OC)c1OC [Compound 7v, 2-{5-[2-(3,4,5-Trimethoxyphenyl)-1 H-benzo[d]imidazol-5-yl]-1,3,4-oxadiazol-2-ylthio}-N-{4-[(E)-3-(4-chlorophenyl)acryloyl]phenyl}acetamide]
inhibition at 10 µM (HL-60(TB); HL-60(TB) (Leukemia), NCI one dose 10 µM): 7.46%
inhibition at 10 µM (COLO 205; COLO 205 (Colon Cancer), NCI one dose 10 µM): 0%
inhibition at 10 µM (NCI/ADR-RES; NCI/ADR-RES (Ovarian Cancer), NCI one dose 10 µM): 0%
inhibition at 10 µM (HOP-92; HOP-92 (Non-Small Cell Lung Cancer), NCI one dose 10 µM): 17.8%
inhibition at 10 µM (MDA-MB-468; MDA-MB-468 (Breast Cancer), NCI one dose 10 µM): 6.96%
inhibition at 10 µM (SNB-75; SNB-75 (CNS Cancer), NCI one dose 10 µM): 14.7%
inhibition at 10 µM (OVCAR-4; OVCAR-4 (Ovarian Cancer), NCI one dose 10 µM): 0%
inhibition at 10 µM (UACC-62; UACC-62 (Melanoma), NCI one dose 10 µM): 16%
inhibition at 10 µM (A549/ATCC; A549/ATCC (Non-Small Cell Lung Cancer), NCI one dose 10 µM): 0%
inhibition at 10 µM (SF-539; SF-539 (CNS Cancer), NCI one dose 10 µM): 25.3%
inhibition at 10 µM (MALME-3M; MALME-3M (Melanoma), NCI one dose 10 µM): 0%
inhibition at 10 µM (M14; M14 (Melanoma), NCI one dose 10 µM): 0%
inhibition at 10 µM (SN12C; SN 12C (Renal Cancer), NCI one dose 10 µM): 9.61%
inhibition at 10 µM (DU-145; DU-145 (Prostate Cancer), NCI one dose 10 µM): 0%
inhibition at 10 µM (PC-3; PC-3 (Prostate Cancer), NCI one dose 10 µM): 4.91%
inhibition at 10 µM (KM12; KM12 (Colon Cancer), NCI one dose 10 µM): 9.06%
inhibition at 10 µM (NCI-H460; NCI-H460 (Non-Small Cell Lung Cancer), NCI one dose 10 µM): 0%
inhibition at 10 µM (HS 578T; HS 578T (Breast Cancer), NCI one dose 10 µM): 12.1%
inhibition at 10 µM (CCRF-CEM; CCRF-CEM (Leukemia), NCI one dose 10 µM): 18.4%
inhibition at 10 µM (ACHN; ACHN (Renal Cancer), NCI one dose 10 µM): 3.22%
inhibition at 10 µM (UACC-257; UACC-257 (Melanoma), NCI one dose 10 µM): 0%
inhibition at 10 µM (HT29; HT29 (Colon Cancer), NCI one dose 10 µM): 0%
inhibition at 10 µM (RPMI-8226; RPMI-8226 (Leukemia), NCI one dose 10 µM): 42.8%
inhibition at 10 µM (SK-MEL-28; SK-MEL-28 (Melanoma), NCI one dose 10 µM): 0%
inhibition at 10 µM (SK-MEL-2; SK-MEL-2 (Melanoma), NCI one dose 10 µM): 0%
inhibition at 10 µM (SW-620; SW-620 (Colon Cancer), NCI one dose 10 µM): 0%
inhibition at 10 µM (OVCAR-3; OVCAR-3 (Ovarian Cancer), NCI one dose 10 µM): 2.13%
inhibition at 10 µM (SF-268; SF-268 (CNS Cancer), NCI one dose 10 µM): 0.81%
inhibition at 10 µM (LOX IMVI; LOX IMIV (Melanoma), NCI one dose 10 µM): 132%
inhibition at 10 µM (HCT-15; HCT-15 (Colon Cancer), NCI one dose 10 µM): 13.1%
inhibition at 10 µM (OVCAR-5; OVCAR-5 (Ovarian Cancer), NCI one dose 10 µM): 0.76%

COc1ccc(/C=C/C(=O)c2ccc(NC(=O)CSc3nnc(-c4ccc5[nH]c(-c6ccc(OC)cc6)nc5c4)o3)cc2)cc1 [Compound 7m, 2-{5-[2-(4-Methoxyphenyl)-1 H-benzo[d]imidazol-5-yl]-1,3,4-oxadiazol-2-ylthio}-N-{4-[(E)-3-(4-methoxyphenyl)acryloyl]phenyl}acetamide]
inhibition at 10 µM (HL-60(TB); HL-60(TB), Leukemia, NCI one dose): 21.9%
inhibition at 10 µM (COLO 205; COLO 205, Colon cancer, NCI one dose): 0%
inhibition at 10 µM (NCI/ADR-RES; NCI/ADR-RES, Ovarian Cancer, NCI one dose): 0%
inhibition at 10 µM (HOP-92; HOP-92, Non-Small Cell Lung Cancer, NCI one dose): 18.9%
inhibition at 10 µM (MDA-MB-468; MDA-MB-468, Breast cancer, NCI one dose): 0%
inhibition at 10 µM (SNB-75; SNB-75, CNS Cancer, NCI one dose): 0%
inhibition at 10 µM (OVCAR-4; OVCAR-4, Ovarian Cancer, NCI one dose): 6.89%
inhibition at 10 µM (UACC-62; UACC-62, Melanoma, NCI one dose): 14.9%
inhibition at 10 µM (A549/ATCC; A549/ATCC, Non-Small Cell Lung Cancer, NCI one dose): 0%
inhibition at 10 µM (SF-539; SF-539, CNS Cancer, NCI one dose): 18%
inhibition at 10 µM (MALME-3M; MALME-3M, Melanoma, NCI one dose): 17.8%
inhibition at 10 µM (M14; M14, Melanoma, NCI one dose): 0%
inhibition at 10 µM (SN12C; SN 12C, Renal cancer, NCI one dose): 23.1%
inhibition at 10 µM (DU-145; DU-145, Prostate Cancer, NCI one dose): 0%
inhibition at 10 µM (PC-3; PC-3, Prostate Cancer, NCI one dose): 14.7%
inhibition at 10 µM (KM12; KM12, Colon cancer, NCI one dose): 3.51%
inhibition at 10 µM (NCI-H460; NCI-H460, Non-Small Cell Lung Cancer, NCI one dose): 1.44%
inhibition at 10 µM (HS 578T; HS 578T, Breast cancer, NCI one dose): 21.1%
inhibition at 10 µM (CCRF-CEM; CCRF-CEM, Leukemia, NCI one dose): 38.5%
inhibition at 10 µM (ACHN; ACHN, Renal cancer, NCI one dose): 0%
inhibition at 10 µM (UACC-257; UACC-257, Melanoma, NCI one dose): 0%
inhibition at 10 µM (HT29; HT29, Colon cancer, NCI one dose): 0%
inhibition at 10 µM (RPMI-8226; RPMI-8226, Leukemia, NCI one dose): 44.1%
inhibition at 10 µM (SK-MEL-28; SK-MEL-28, Melanoma, NCI one dose): 2%
inhibition at 10 µM (SK-MEL-2; SK-MEL-2, Melanoma, NCI one dose): 0%
inhibition at 10 µM (SW-620; SW-620, Colon cancer, NCI one dose): 2%
inhibition at 10 µM (OVCAR-3; OVCAR-3, Ovarian Cancer, NCI one dose): 3.65%
inhibition at 10 µM (SF-268; SF-268, CNS Cancer, NCI one dose): 5.02%
inhibition at 10 µM (LOX IMVI; Melanoma, NCI one dose): 81.5%
inhibition at 10 µM (HCT-15; HCT-15, Colon cancer, NCI one dose): 4.27%
inhibition at 10 µM (OVCAR-5; OVCAR-5, Ovarian Cancer, NCI one dose): 0%
